Data set [1] relates to Huh-7. The data set is described as follows: Induction of apoptosis in human Huh-7 cells assessed as decrease in bcl-2 level at 10 nM incubated for 48 hrs in presence of gamabufotalin by immunoblot analysis. In kind it is functional, cell-based. (Immunoblotting shows a protein as a band on a membrane.)
The subject of data set [2] is Hep 3B2. Briefly: Induction of autophagic flux in human Hep3B cells assessed as rescue of p62 at 10 uM incubated for 48 hrs in presence of gamabufotalin by Western blot analysis. In kind it is functional, cell-based.
Data set [3] relates to Huh-7. The data set is described as follows: Induction of apoptosis in human Huh-7 cells assessed as early apoptotic cells at 10 nM incubated for 48 hrs by Annexin V-FITC/PI staining based flow cytometry method (reference value: 2.8%). In kind it is functional. For orientation: In flow cytometry, cells or beads pass a laser one at a time.
Data set [4] deals with Hep 3B2. Briefly: Induction of apoptosis in human Hep3B cells assessed as necrotic cells at 10 nM incubated for 48 hrs by Annexin V-FITC/PI staining based flow cytometry method (reference value: 1.2%). In kind it is functional.
The test system of data set [5] is Hep 3B2. The data set is described as follows: Induction of apoptosis in human Hep3B cells assessed as increase in caspase-3 level at 10 nM incubated for 48 hrs in presence of gamabufotalin by immunoblot analysis. In kind it is functional, cell-based.
Data set [6] deals with Huh-7. The data set is described as follows: Induction of autophagic flux in human Huh-7 cells harbouring mCherry-egfp-LC3 assessed as reduction in number of red puncta ratio at 10 nM incubated for 15 mins in presence of gamabufotalin by laser scanning confocal microscopic analysis. In kind it is functional, cell-based.
In data set [7] the test system is Huh-7. The data set is described as follows: Induction of autophagic flux in human Huh-7 cells assessed as rescue of LC3-I accumulation at 10 uM incubated for 48 hrs in presence of gamabufotalin by Western blot analysis. In kind it is functional, cell-based.
The subject of data set [8] is Hep 3B2. Briefly: Induction of apoptosis in human Hep3B cells assessed as late apoptotic cells at 10 nM incubated for 48 hrs in presence of gamabufotalin by Annexin V-FITC/PI staining based flow cytometry method (reference value: 3.5%). In kind it is functional.
Data set [9] concerns Huh-7. Briefly: Induction of autophagic flux in human Huh-7 cells harbouring mCherry-egfp-LC3 assessed as increase in yellow puncta ratio at 10 nM by fluorescence imaging based assay. In kind it is functional, cell-based.
For data set [10], the system named is Hep 3B2. The data set is described as follows: Induction of autophagic flux in human Hep3B cells assessed as rescue of LC3-I accumulation at 10 uM incubated for 48 hrs in presence of gamabufotalin by Western blot analysis. In kind it is functional, cell-based.
The subject of data set [11] is Huh-7. The data set is described as follows: Induction of apoptosis in human Huh-7 cells assessed as increase in PARP level at 10 nM incubated for 48 hrs in presence of gamabufotalin by immunoblot analysis. The data set is classed as functional, cell-based.
Data set [12] has as its system Hep 3B2. The data set is described as follows: Induction of apoptosis in human Hep3B cells assessed as fragmented nuclei at […] incubated for 48 hrs by Hoechst33258 staining based fluorescence microscopy. In kind it is functional, cell-based.
Data set [13] concerns Hep 3B2. The data set is described as follows: Induction of apoptosis in human Hep3B cells assessed as early apoptotic cells at 25 nM measured after 48 hrs by annexin V-FITC/Propidium iodide staining based flow cytometric analysis (reference value: 1.6%). In kind it is functional.
A short description of data set [14]: Toxicity in mouse assessed as effect on liver at 5 mg/kg,ip administered every second day for 3 weeks by H and E staining based microscopic method. The settings on record: in vivo, 504 h. In kind it is organism-based.
In data set [15] the test system is Huh-7. The data set is described as follows: Induction of apoptosis in human Huh-7 cells assessed as […] in Bax level at upto 25 nM incubated for 48 hrs by Western blot analysis. The data set is classed as functional, cell-based.
The subject of data set [16] is Huh-7. Briefly: Induction of apoptosis in human Huh-7 cells assessed as reduction in bcl-2 level […] incubated for 48 hrs in presence of 4,6-dimorpholino-N-(4-nitrophenyl)-1,3,5-triazin-2-amine by immunoblot analysis. In kind it is functional, cell-based.
Data set [17] concerns Hep 3B2. The data set is described as follows: Induction of autophagy in human Hep3B cells assessed as reduction in autophagic vesicles at 25 nM incubated for 48 hrs in presence of 4,6-dimorpholino-N-(4-nitrophenyl)-1,3,5-triazin-2-amine by transmission electron microscopy based analysis. The data set is classed as functional, cell-based.
The nature of data set [18]: Toxicity in mouse assessed as effect on body weight at 5 mg/kg,ip administered every second day for 3 weeks. In kind it is organism-based. The following applies: in vivo, 504 h.
In data set [19] the test system is Huh-7. Briefly: Induction of apoptosis in human Huh-7 cells assessed as increase in Bcl-2 expression at upto 25 nM incubated for 48 hrs by Western blot analysis. In kind it is functional, cell-based.
Data set [20] concerns Hep 3B2. Briefly: Antitumor activity against human Hep3B cells xenografted in nude mouse model assessed as upregulation of bax expression at 5 mg/kg,ip administered every second day for 3 weeks by Western blot analysis. The data set is classed as functional, organism-based.
The test system of data set [21] is Hep 3B2. Briefly: Induction of autophagic flux in human Hep3B cells assessed as increase in intracellular vesicles at 25 nM incubated for 48 hrs by transmission electron microscopic analysis. The data set is classed as functional, cell-based.
For data set [22], the system named is Hep 3B2. The data set is described as follows: Induction of apoptosis in human Hep3B cells assessed as increase in cleaved caspase-3 expression at upto 25 nM incubated for 48 hrs by Western blot analysis. The data set is classed as functional, cell-based.
The subject of data set [23] is Huh-7. Briefly: Induction of apoptosis in human Huh-7 cells assessed as late apoptotic cells at 25 nM incubated for 48 hrs by Annexin V-FITC/PI staining based flow cytometry method (reference value: 2.2%). The data set is classed as functional.
Data set [24] relates to Hep 3B2. Briefly: Induction of autophagy in human Hep3B cells assessed as restoration of mTOR phosphorylation expression at 25 uM incubated for 48 hrs in presence of 4,6-dimorpholino-N-(4-nitrophenyl)-1,3,5-triazin-2-amine by immunoblot analysis. The data set is classed as functional, cell-based.
A short description of data set [25]: Toxicity in mouse assessed as effect on lungs at 5 mg/kg,ip administered every second day for 3 weeks by H and E staining based microscopic method. In kind it is organism-based. The following applies: in vivo, 504 h.
Data set [26] deals with Huh-7. The data set is described as follows: Induction of apoptosis in human Huh-7 cells assessed as increase in caspase-3 expression at upto 25 nM incubated for 48 hrs by Western blot analysis. In kind it is functional, cell-based.
Data set [27] has as its system Hep 3B2. The data set is described as follows: Induction of apoptosis in human Hep3B cells assessed as upregulation of cleaved PARP level […] incubated for 48 hrs in presence of 4,6-dimorpholino-N-(4-nitrophenyl)-1,3,5-triazin-2-amine by immunoblot analysis. In kind it is functional, cell-based.
A short description of data set [28]: Toxicity in mouse assessed as effect on serum AST level at 5 mg/kg,ip administered every second day for 3 weeks by H and E staining based microscopic method. The data set is classed as organism-based. The following applies: in vivo, 504 h.
Data set [29] has as its system Hep 3B2. The data set is described as follows: Induction of apoptosis in human Hep3B cells assessed as viable cells at 25 nM incubated for 48 hrs in presence of chloroquine by Annexin V-FITC/PI staining based flow cytometry method (reference value: 94.0%). The data set is classed as functional. The following applies: read-out: Activity.
The test system of data set [30] is Hep 3B2. The data set is described as follows: Induction of morphological changes in human Hep3B cells assessed as adherent cells at upto 25 nM incubated for 48 hrs by bright field imaging analysis. In kind it is functional, cell-based.
Data set [31] deals with Huh-7. Briefly: Induction of apoptosis in human Huh-7 cells assessed as upregulation of cleaved PARP level […] incubated for 48 hrs in presence of 4,6-dimorpholino-N-(4-nitrophenyl)-1,3,5-triazin-2-amine by immunoblot analysis. The data set is classed as functional, cell-based.
For data set [32], the system named is Huh-7. Briefly: Induction of autophagy in human Huh-7 cells assessed as restoration of mTOR phosphorylation expression at 25 uM incubated for 48 hrs in presence of 4,6-dimorpholino-N-(4-nitrophenyl)-1,3,5-triazin-2-amine by immunoblot analysis. The data set is classed as functional, cell-based.
The test system of data set [33] is Hep 3B2. The data set is described as follows: Induction of apoptosis in human Hep3B cells assessed as early apoptotic cells at 25 nM incubated for 48 hrs in presence of chloroquine by Annexin V-FITC/PI staining based flow cytometry method (reference value: 1.3%). The data set is classed as functional.
The subject of data set [34] is Huh-7. Briefly: Induction of apoptosis in human Huh-7 cells assessed as viable cells at 25 nM incubated for 48 hrs in presence of chloroquine by Annexin V-FITC/PI staining based flow cytometry method (reference value: 91.5%). In kind it is functional. The settings on record: read-out: Activity.

Calls of active or inactive are those of the source. The rule behind the calls is not given here.

On to `CCN(CC)CCCC(C)Nc1ccnc2cc(Cl)ccc12` (centres undefined) [CHLOROQUINE], for which the result in the data set on Huh-7 [1], in the data set on Hep 3B2 [2], with Hep 3B2 [5], with Huh-7 [6], with Huh-7 [7] and in the data set on Huh-7 [9] was Active. Besides, the result with Hep 3B2 [10] and with Huh-7 [11] was Active. In addition, the Activity was 2.9% in the data set with Huh-7 [3], 0.4% in the data set with Hep 3B2 [4] and 17.4% in the data set with Hep 3B2 [8].
Take `C[C@]12CC[C@H](O)C[C@H]1CC[C@@H]1[C@@H]2[C@H](O)C[C@]2(C)[C@@H](c3ccc(=O)oc3)CC[C@]12O` [GAMABUFOTALIN]: the outcome in the data set on Hep 3B2 [12], with Huh-7 [15], in the data set with Huh-7 [16], in the data set on Hep 3B2 [17], with Huh-7 [19] and in the data set on Hep 3B2 [20] was Active. For the same compound, the result in the data set with Hep 3B2 [21], in the data set on Hep 3B2 [22], in the data set with Hep 3B2 [24], in the data set with Huh-7 [26], with Hep 3B2 [27] and in the data set with Hep 3B2 [30] was Active. Also, the outcome in the data set on Huh-7 [31] and in the data set with Huh-7 [32] was Active. For the same compound, the Activity in the data set with Hep 3B2 [13] is 6.6%; in [14] it was “Non-Toxic”; in [18] it was “Non-Toxic”; in the data set with Huh-7 [23] it was 31.1%; in data set [25], “Non-Toxic”; in [28] it was “Non-Toxic”. Also, the Activity in the data set with Hep 3B2 [33] stood at 17.9%. Further, the viability at 0.025 µM in the data set with Hep 3B2 [29] was found to be 63.9%; in the data set on Huh-7 [34], 65.4%.

The values above are taken from ChEMBL document CHEMBL5257089, “Gamabufotalin Induces Apoptosis and Cytoprotective Autophagy through the mTOR Signaling Pathway in Hepatocellular Carcinoma” (J Nat Prod, 2023).
